Here are results for nine molecules from US20100112099A1, “PHYTOCHEMICAL COMPOSITIONS AND METHODS FOR ACTIVATING AMP-KINASE” (METAPROTEOMICS, LLC, priority 2008, published 2010).

The first assay concerns AMPK. As to the kind of experiment: AMPK activation (pT172-AMPK immunoassay) in C2C12 myocytes. Type of assay: cell-based, mouse. The conditions noted are these: 1 mM AICAR, 30 min, average over ten independent assays, 95% CI=1.26-2.21. As to the method: The Model—The C2C12 myocyte model is commonly used to study the potential effects of compounds on muscle tissue in vitro.
Cell culture—Mouse C2C12 myoblasts were obtained from American Type Culture Collection (Manassas, Va.), and were maintained in Dulbecco's modified Eagle's medium (DMEM) supplemented with 10% fetal bovine serum at 37° C. under a humidified atmosphere of 5% CO2.
C2C12 cells were seeded at an initial density of 6×10^4 cells/cm^2 in 24-well plates. For two days, the cells were allowed grow to reach confluence. Following confluence, the cells were forced to differentiate into myocytes by culturing in DMEM supplemented with 2% horse serum for seven days.
Treatment with AICAR—On Day 8 to 10 post differentiation, C2C12 myocytes were incubated in serum-free DMEM plus 0.5% BSA (bovine serum albumin) for three hours. Next, AICAR (Cell Signal, Danvers, Mass.) was dissolved in phosphate buffered saline (PBS) and added to the culture medium to achieve concentrations of 1 mM per column (4 replicates) for 30 min at 37° C.
Measuring activated AMPKα—pT^172-AMPK was quantified using the Biosource AMPKa Immunoassay Kit (Camarillo, Calif.) without modification. Protein content of the cell lysates was determined with the Active Motif fluorescent protein assay reagent (Carlsbad Calif., Hoefelschweiger, B. K., Duerkop, A., and Wolfbeis, O, S, Novel type of general protein assay using a chromogenic and fluorogenic amine-reactive probe. Anal Biochem 2005, 344, 122-9). A Packard Fluorocount spectrofluorometer (Model#BF10000, Meridan, Conn.) was used for protein determination and a MEL312e BIO-KINETICS READER (Bio-Tek Instruments, Winooski, Vt.) was used for quantification of pT^172-AMPK.
Calculation of relative activation of AMPK —pT^172-AMPK was computed per mg lysate protein and then normalized to the dimethyl sulfoxide (DMSO) negative controls. For statistical comparisons, 95% confidence intervals were computed (Excel, Microsoft, Redman, Wash.).
The Model—The C2C12 murine myocyte model as described in Example 1 was used.
Chemicals, Cell Culture and Treatment—Chemicals, cell culture procedures, methods and statistical procedures used were as noted in Example 1.
Test Materials—Phytochemicals or botanical extracts as described in Table 1 were used as the test materials and dosed at 25 μglmL. The concentration for the positive control AICAR run concurrently was 1.0 mM (338 μg/mL).
The Model—The C2C12 murine myocyte model as described in Example 1 was used in this example.
Test Materials—Botanical extracts Ginger Extract (Suan Farma, Hackensack, N.J.), Ginger Root Powder (BI Nutraceuticals, Long Beach, Calif.), and Ginger Powdered Extract 6:1, Zingiber officinale (Draco, San Jose, Calif.) were used as the test materials and dosed at 25 μg/mL. The concentration for the positive control AICAR was 1.0 mM (338 μg/mL).
As for `NC(=O)c1ncn([C@@H]2O[C@H](CO)[C@@H](O)[C@H]2O)c1N` [AICAR, 5-Aminoimidazole-4-carboxamide ribonucleoside, reference compound], the “increase of pT172-AMPK relative to the DMSO negative controls” value turned out to be 1.67 fold.

The same assay, now with this note: test material 25 μg/mL, pT172-AMPK per mg lysate protein normalized to DMSO negative controls.
Regarding `CCCCC[C@H](O)CC(=O)CCc1ccc(O)c(OC)c1` [6-Gingerol], the pAMPK/AMPK. amounted to 3.52.

For the molecule `COc1ccc2cc3[n+](cc2c1OC)CCc1cc2c(cc1-3)OCO2` [Berberine], the pAMPK/AMPK. worked out at 1.26.

In turn, `CC(C)C[C@H](N)C(=O)O` [L-Leucine] returned a pAMPK/AMPK. of 1.29.

As for `CC(C)=CCC1=C(O)C(C(=O)CC(C)C)=C(O)C(CC=C(C)C)(CC=C(C)C)C1=O` [Lupulone], the pAMPK/AMPK. worked out at 1.63.

Molecule `Oc1ccc(C=Cc2cc(O)cc(O)c2)cc1` [Resveratrol] registered a pAMPK/AMPK. of 1.25.

With `CNCC(O)c1ccc(O)cc1` (stereo not drawn) [Synephrine], the pAMPK/AMPK. turned out to be 2.64.

`COc1cc(O)c(CC=C(C)C)c(O)c1C(=O)/C=C/c1ccc(O)cc1` [Xanthohumol]: the pAMPK/AMPK. was determined as 1.55.

Molecule Chromium polynicotinate gave a pAMPK/AMPK. of 1.59.
